Columns and labels:
[1] = system: SKH-1 hairless mice; assay: UVB-induced skin lesions; format: in vivo, mouse; conditions: UVB-irradiated SKH-1 mice; topical, 15 min before UVB
Experimental: In the study, SKH-1 hairless mice are irradiated with UVB radiation at the dose of 1.8 kJ/m^2 for up to 15 min. Mice are pretreated with two different doses of F035 of (2 mg and 4 mg per dose) as well as negative controls (F060 or acetone alone). It is believed a minimum of 10 mice per group are needed to obtain statistically meaningful results. […] The studies are conducted for a short period of time to evaluate the preventive effect of the compounds. It is not expected to see visible tumors, even with UVB alone, only skin lesions within the specified time-frame. A slight erythema (minor redness of the skin) may be observed, which should disappear the next day after irradiation.
The UV apparatus used has eight Westinghouse FS40 sunlamps, an IL-1400A radiometer/photometer, and an attached IL-1403 UVB phototherapy radiometer with a SEL 240/UVB-1/TD detector. The middle part has several chambers, each holding an individual mouse. There are holes inside the chambers for proper ventilation while mice are being irradiated. The chambers rotate in circular motion during irradiation so each mouse is exposed to UVB light uniformly. […] The amount of the UVB exposure will be measured with a UVB radiometer. […]
Methods. […] The relative efficacy of the treatment was evaluated utilizing endpoints of epidermal thickness, leukocyte invasion, labeling (with BrdU) index, p53 mutations and 8-OH-dG formation. […]

[2] = system: mitochondrial fraction of Jurkat cells; assay: Cytochrome c release in a cell free system; format: biochemical, human; conditions: isolated mitochondria; 25 μM pretreatment
Experimental: Isolation of the Submitochondrial Fraction. Jurkat cells (1.5-2.0×10^7) were suspended in 1 ml sucrose buffer (250 mM sucrose in 30 mM Tris-HCl pH 7.4) and transferred into an N2 cavitation chamber (PARR Instruments Company, Moline, Ill.). The cells were subjected to N2 cavitation (300 psi for 5 min) as per the manufacturer's instructions. Under these conditions most of the cell membrane was disrupted with no change in the mitochondrial respiratory activity. Next, DNA and the nuclear fraction were removed by centrifugation (1500 g, 30 sec). The supernatant was further centrifuged (16000 g, 10 min) and the pellet was used as the submitochondrial fraction.
To observe if monoterpene/triterpenoid saponins directly affected mitochondria to induce apoptosis, experiments were carried out using avicin G in a cell free system. Mitochondria were isolated from Jurkat cells by the N2 cavitation method.

[3] = system: PARP in Jurkat cells; assay: Immunoblot analysis of PARP degradation; format: cell-based, human
Experimental: Apoptosis induced by F035 & D1 was examined by proteolytic cleavage of poly (ADP-ribose) polymerase (PARP). Jurkat cells (2×10^6/ml) were treated with F035 (2 μg/ml) and D1 (2 μg/ml) for different lengths of time. Cell lysates were prepared in buffer containing 20 mM HEPES, 250 mM NaCl, 2 mM EDTA, 0.1% NP-40, 2 μg/ml leupeptin, 2 μg/ml aprotinin, 0.5 μg/ml benzamidine, 1 mM DTT and 1 mM PMSF. Cellular proteins (60 μg/ml) were separated on a 7.5% SDS polyacrylamide gel and electrotransferred onto a nitrocellulose membrane. The membrane was probed first with monclonal anti-PARP antibody (PharMingen) and then with anti-mouse antibody conjugated to horse radish peroxidase (HRPO). Protein bands were detected by chemiluminescense (ECL, Amersham). The extent of cleavage of the 116-kDa PARP into 85-kDa and 41-kDa peptide products was used as a measure of apoptosis (Tewari et al., 1995).
Immunoblot Analysis of PARP Degradation. Induction of apoptosis was also examined by proteolytic cleavage of PARP (Nicholson and Thornberry, 1997). Jurkat cells (3×10^6) were treated with 2 μg/ml of F094, avicin D, or avicin G at 37° C. Cell lysates were prepared in a buffer containing 20 mM HEPES, 250 mM NaCl, 2 mM EDTA, 0.1% NP-40, 2 μg/ml leupeptin, 2 μg/ml aprotinin, 0.5 μg/ml benzamidine, 1 mM DTT, and 1 mM PMSF. Cellular proteins (60 μg/ml) were separated on a 7.5% SDS polyacrylamide gel and electrotransferred onto a nitrocellulose membrane. The membrane was probed first with monoclonal anti-PARP antibody (Pharmingen) and then with anti-mouse antibody conjugated to horseradish peroxidase (HRPO). Protein bands were detected by chemiluminescence (ECL). The appearance of an 85 kDa cleavage product was used as a measure of apoptosis.

| Substance | decrease in number of cycling cells (BrdU labeling) [1] [%] | effect on avicin G induced cytochrome c release [2] | effect on cleavage of PARP induced by F094 or avicins ([3]; 100 μM pretreatment 1 hour) | effect on F035 induced cleavage of PARP ([3]; 100 μM pretreatment for 1 h) |
| --- | --- | --- | --- | --- |
| Vitamin E | 30 |  |  |  |
| z-Val-Ala-Asp-CH2F [z-vad fmk, reference compound] |  | did not affect the release of cytochrome c | totally blocked the cleavage of PARP | completely reversed |
